Reference: the supplement of paper PMC10307832

Tests used:
Assay in all cases: relative viability (nuclei count vs DMSO), 5 days (fraction); higher = more cells survive
[1] = compound: Nc1ccccc1NC(=O)c1ccc(CNC(=O)OCc2cccnc2)cc1 [Entinostat] + Cc1nc(NC(=O)N2CCC[C@H]2C(N)=O)sc1-c1ccnc(C(C)(C)C(F)(F)F)c1 [Alpelisib] (partner 2 µM)
Method in brief: (§1)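 The day after seeding in 1536-well plates, lung cancer cell lines were treated by pin tool with a single drug, or with a fixed anchor-drug dose together with five library-drug doses (not always all listed) in √10 steps. After 5 days, a combined fix-and-stain solution (final 0.05% Triton X-100, 1% formaldehyde, 1 ug/ml Hoechst) was added. Nuclei counted on 4× images gave relative viability as treated counts over vehicle counts, reported as the median of duplicate plates.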

[2] = compound: C1COCCN1C2=NC(=NC3=C2OC4=C3C=CC=N4)C5=CC(=CC=C5)NC(=O)C6=CN=C(C=C6)N + Nc1nc2[nH]cc(CCc3ccc(C(=O)N[C@@H](CCC(=O)O)C(=O)O)cc3)c2c(=O)[nH]1 [Pemetrexed] (partner 0.2 µM)
Method in brief: as §1

[3] = compound: Nc1ccccc1NC(=O)c1ccc(CNC(=O)OCc2cccnc2)cc1 [Entinostat] + Nc1ncn([C@H]2C[C@H](O)[C@@H](CO)O2)c(=O)n1 [Decitabine] (partner 2 µM)
Method in brief: as §1

[4] = compound: C1COCCN1C2=NC(=NC3=C2OC4=C3C=CC=N4)C5=CC(=CC=C5)NC(=O)C6=CN=C(C=C6)N + CC(=O)Nc1cccc(-n2c(=O)n(C3CC3)c(=O)c3c(Nc4ccc(I)cc4F)n(C)c(=O)c(C)c32)c1 [Trametinib] (partner 0.02 µM)
Method in brief: as §1

Cell Line | relative viability ([1]; first compound 0.02 µM) | relative viability ([1]; first compound 0.06325 µM) | relative viability ([1]; first compound 0.2 µM) | relative viability ([1]; first compound 0.6325 µM) | relative viability ([1]; first compound 2 µM) | relative viability ([2]; first compound 0.02 µM) | relative viability ([2]; first compound 0.06325 µM) | relative viability ([2]; first compound 0.2 µM) | relative viability ([2]; first compound 0.6325 µM) | relative viability ([2]; first compound 2 µM) | relative viability ([3]; first compound 0.02 µM) | relative viability ([3]; first compound 0.06325 µM) | relative viability ([3]; first compound 0.2 µM) | relative viability ([3]; first compound 0.6325 µM) | relative viability ([3]; first compound 2 µM) | relative viability ([4]; first compound 0.02 µM) | relative viability ([4]; first compound 0.06325 µM) | relative viability ([4]; first compound 0.2 µM) | relative viability ([4]; first compound 0.6325 µM) | relative viability ([4]; first compound 2 µM)
NCI-H1944 | 0.81 | 0.774 | 0.556 | 0.422 | 0.273 | 0.65 | 0.719 | 0.589 | 0.64 | 0.545 | 0.391 | 0.372 | 0.258 | 0.25 | 0.245 | 0.378 | 0.453 | 0.451 | 0.382 | 0.377
NCI-H2405 | 0.789 | 1.01 | 0.931 | 0.795 | 0.528 | 1.04 | 1.11 | 1.03 | 0.968 | 0.989 | 0.693 | 0.784 | 0.686 | 0.501 | 0.511 | 0.478 | 0.722 | 0.672 | 0.553 | 0.418
201T | 1.01 | 1.08 | 1.02 | 0.859 | 0.525 | 0.285 | 0.301 | 0.307 | 0.38 | 0.34 | 0.82 | 0.692 | 0.777 | 0.401 | 0.406 | 0.697 | 0.713 | 0.705 | 0.686 | 0.563
PC-3 [JPC-3] | 0.98 | 0.929 | 0.829 | 0.667 | 0.463 | 1.21 | 1.09 |  | 1.08 | 1.17 | 0.778 | 0.852 | 0.731 | 0.573 | 0.55 | 0.65 | 0.696 |  | 0.843 | 0.659
NCI-H1734 | 0.765 | 0.779 | 0.681 | 0.737 | 0.581 | 0.393 | 0.427 | 0.36 | 0.351 | 0.33 | 0.555 | 0.483 | 0.464 | 0.451 | 0.298 | 0.657 | 0.816 | 0.67 | 0.635 | 0.512
NCI-H1651 | 1.08 | 0.979 | 0.994 | 0.748 | 0.372 | 0.615 | 0.581 | 0.572 | 0.599 | 0.31 | 0.666 | 0.824 | 0.609 | 0.558 | 0.19 | 0.842 | 0.867 | 0.836 | 0.818 | 0.731
NCI-H838 | 1.03 | 1.15 | 1.13 | 0.72 | 0.301 | 0.257 | 0.246 | 0.25 | 0.242 | 0.167 | 0.484 | 0.541 | 0.477 | 0.431 | 0.341 | 0.52 | 0.529 | 0.463 | 0.41 | 0.298
NCI-H1915 | 1.07 | 1.08 | 1.05 | 0.816 | 0.402 | 0.51 | 0.515 | 0.471 | 0.476 | 0.369 | 0.276 | 0.246 | 0.258 | 0.229 | 0.197 | 0.3 | 0.313 | 0.298 | 0.218 | 0.281
COR-L23 | 0.658 | 0.632 | 0.547 | 0.321 | 0.175 | 0.202 | 0.204 | 0.194 | 0.162 | 0.167 | 0.402 | 0.413 | 0.356 | 0.217 | 0.141 | 0.609 | 0.669 | 0.663 | 0.593 | 0.469
HOP-62 | 1.02 | 0.9 | 0.929 | 0.599 | 0.348 | 0.298 | 0.3 | 0.301 | 0.29 | 0.162 | 0.272 | 0.248 | 0.248 | 0.213 | 0.132 | 0.403 | 0.415 | 0.323 | 0.359 | 0.227
NCI-H1975 | 0.454 | 0.38 | 0.38 | 0.247 | 0.204 | 0.327 | 0.296 | 0.293 | 0.292 | 0.23 | 0.358 | 0.35 | 0.301 | 0.169 | 0.155 | 0.315 | 0.362 | 0.307 | 0.348 | 0.31
BEN | 1.21 | 0.944 | 1.02 | 0.6 | 0.275 | 0.737 | 0.795 | 0.584 | 0.693 | 0.665 | 0.774 | 0.956 | 0.657 | 0.447 | 0.345 | 1 | 0.947 | 1.11 | 0.888 | 0.939
EMC-BAC-2 | 0.797 | 0.795 | 0.776 | 0.636 | 0.394 | 0.458 | 0.462 | 0.465 | 0.462 | 0.444 | 0.988 | 0.916 | 0.815 | 0.486 | 0.364 | 0.838 | 0.924 | 0.853 | 0.789 | 0.725
NCI-H650 | 1.18 | 1.13 | 1.03 | 0.763 | 0.339 | 0.95 | 0.918 | 0.945 | 0.835 | 0.782 | 0.312 | 0.336 | 0.252 | 0.278 | 0.226 | 0.923 | 1.05 | 0.951 | 0.888 | 0.796
LU99A | 0.517 | 0.5 | 0.546 | 0.418 | 0.324 | 0.204 | 0.183 | 0.223 | 0.184 | 0.178 | 0.953 | 0.952 | 0.749 | 0.696 | 0.646 | 0.592 | 0.576 | 0.547 | 0.452 | 0.389
NCI-H2347 | 1.09 | 0.99 | 0.865 | 0.391 | 0.343 | 0.416 | 0.528 | 0.433 | 0.417 | 0.427 | 0.611 | 0.585 | 0.494 | 0.471 | 0.363 | 0.302 | 0.264 | 0.289 | 0.314 | 0.258
